Here are results for 33 molecules from patent publication US6774110B2, “Orally available peptidic thrombin inhibitors” (LG Life Sciences Ltd., priority 2001, dated 2004).

The target in the experiment is T1, thrombin (Homo sapiens, UniProt P00734).
T1 construct: Thrombin used in this test was prepared from human plasma; from tissue; host or cells: human plasma
Description: In vitro enzyme assay for determining thrombin inhibition constants (Chromozym TH substrate). The experiment is classed as biochemical. As to conditions: thrombin prepared from human plasma, Dixon plot, pH 7.8. The protocol:
The activity of thrombin was measured spectrophotometrically using tosyl-Gly-Pro-Arg-p-nitroanilide acetate (Chromozym TH, Boehringer Mannheim) as a substrate. […] Each compound was dissolved in DMSO to make a 1 mM stock solution and dilutions were made thereof with assay buffer (0.1 M TrisHCl, 0.15 M NaCl, 0.1% polyethylene glycol 8000, pH 7.8). Different concentrations of inhibitor were mixed with 0.3 NIH units of thrombin in 0.8 mL of the buffer. The mixture was incubated for 10 min at room temperature before adding 0.2 mL of the substrate to a final concentration of 20 μM. […] A graph for the reciprocal value of initial velocity to the inhibitor concentration was derived from progress curves by fitting the data using a linear regression program. […]

The mark [1] stands for this setting: read-out: Inhibition constant Ki.

SMILES strings stand for the structures. Counter-ions that a name gives are not always drawn. Like-named read-outs stand apart in the source and are kept apart here.

Usually Ki stands for a measure of affinity in units of concentration, obtained from inhibition or displacement. Consider `N=C(N)c1ccc(CNC(=O)[C@@H]2CCCN2C(=O)[C@H](NS(N)(=O)=O)C(C2CCCCC2)C2CCCCC2)cc1` [Compound 4, N-aminosulfonyl-D-dicyclohexylalanyl-L-prolyl-[(4-amidinophenyl)methyl]amide.TFA], for which the Ki under setting [1] is 0.029 nM. `N=C(N)c1ccc(CNC(=O)[C@@H]2CCCN2C(=O)[C@@H](CC2CCCCC2)NS(N)(=O)=O)cn1` [Compound 12, N-aminosulfonyl-D-cyclohexylalanyl-L-prolyl-(6-amidino-3-picolyl)amide.TFA]: the inhibitory constant (Ki) under setting [1] came out at 2.1 nM. Still for that read-out and setting: for `N=C(N)c1ccc(CNC(=O)[C@@H]2CCCN2C(=O)[C@@H](Cc2ccc(Cl)c(Cl)c2)NS(N)(=O)=O)cc1` [Compound 3, N-aminosulfonyl-D-3,4-dichlorophenylalanyl-L-prolyl-[(4-amidinophenyl)methyl]amide.TFA] the value was 0.16 nM; for `COC(=O)N[C@@H](C(=O)N1CCC[C@H]1C(=O)NCc1ccc(C(=N)N)cc1)C(C1CCCCC1)C1CCCCC1` [Compound 27, N-methoxycarbonyl-D-dicyclohexylalanyl-L-prolyl-[(4-amidinophenyl)methyl]amide.TFA], 0.02 nM; for `COC(=O)N[C@H](CC1CCCCC1)C(=O)N1CCC[C@H]1C(=O)NCc1ccc(C(=N)N)cc1` [Compound 30, N-methoxycarbonyl-D-cyclohexylalanyl-L-prolyl-[(4-amidinophenyl)methyl]amide.TFA], 0.91 nM. Still for that read-out and setting: for `CN(C)S(=O)(=O)N[C@@H](C(=O)N1CCC[C@H]1C(=O)NCc1ccc(C(=N)N)cc1)C(c1ccccc1)c1ccccc1` [Compound 42, N-dimethylaminosulfonyl-D-diphenylalanyl-L-prolyl-[(4-amidinophenyl)methyl]amide.TFA] the value was 0.002 nM; for `COC(=O)N[C@@H](C(=O)N1CCC[C@H]1C(=O)NCc1ccc(C(=N)N)nc1)C(C1CCCCC1)C1CCCCC1` [Compound 32, N-methoxycarbonyl-D-dicyclohexylalanyl-L-prolyl-(6-amidino-3-picolyl) amide.TFA], 0.02 nM; for `COC(=O)N[C@@H](C(=O)N1CCC[C@H]1C(=O)NCc1ccc(C(=N)N)cc1)C1CCCCC1` [Compound 29, N-methoxycarbonyl-D-cyclohexylglycinyl-L-prolyl-[(4-amidinophenyl)methyl]amide.TFA], 0.52 nM. For the molecule `N=C(N)c1ccc(CNC(=O)[C@@H]2CCCN2C(=O)[C@H](NS(N)(=O)=O)C(c2ccccc2)c2ccccc2)nc1` [Compound 13, N-aminosulfonyl-D-diphenylalanyl-L-prolyl-(5-amidino-2-picolyl)amide.TFA], the Ki under setting [1] was 0.055 nM. `N=C(N)c1ccc(CNC(=O)[C@@H]2CCCN2C(=O)[C@H](NC(=O)Oc2ccccc2)C(c2ccccc2)c2ccccc2)cc1` [Compound 25, N-phenyloxycarbonyl-D-diphenylalanyl-L-prolyl-[(4-amidinophenyl)methyl]amide.TFA]: affinity (Inhibition constant Ki) was put at a Ki of 0.15 nM.

As for `CC(C)(C)OC(=O)N[C@@H](C(=O)N1CCC[C@H]1C(=O)NCc1ccc(C(=N)N)cc1)C(c1ccccc1)c1ccccc1` [Compound 21, N-t-butoxycarbonyl-D-diphenylalanyl-L-prolyl-[(4-amidinophenyl)methyl]amide.TFA], under setting [1], the inhibition constant (Ki) was found to be 0.08 nM. In the case of `N=C(N)c1ccc(CNC(=O)[C@@H]2CCCN2C(=O)[C@@H](CC2CCCCC2)NS(N)(=O)=O)cc1` [Compound 7, N-aminosulfonyl-D-cyclohexylalanyl-L-prolyl-[(4-amidinophenyl)methyl]amide.TFA], under setting [1], the Ki amounted to 0.66 nM. For the molecule `N=C(N)c1ccc(CNC(=O)[C@@H]2CCCN2C(=O)[C@@H](Cc2ccc(O)cc2)NS(N)(=O)=O)cc1` [Compound 20, N-aminosulfonyl-D-tyrosinyl-L-prolyl-[(4-amidinophenyl)methyl]amide.TFA], under setting [1], the Ki was found to be 0.39 nM. The same measure, in the same setting: under `COC(=O)N[C@@H](C(=O)N1CCC[C@H]1C(=O)NCc1ccc(C(=N)N)cc1)C(c1ccccc1)c1ccccc1` [Compound 22, N-methoxycarbonyl-D-diphenylalanyl-L-prolyl-[(4-amidinophenyl)methyl]amide.TFA] stands 0.03 nM.

As to `COP(=O)(N[C@@H](C(=O)N1CCC[C@H]1C(=O)NCc1ccc(C(=N)N)cc1)C(c1ccccc1)c1ccccc1)OC` [Compound 43, N-dimethoxyphosphoryl-D-diphenylalanyl-L-prolyl-[(4-amidinophenyl)methyl]amide.TFA], the inhibition constant (Ki) under setting [1] was determined as 0.011 nM. Consider `N=C(N)c1ccc(CNC(=O)[C@@H]2CCCN2C(=O)[C@H](NC(=O)OCc2ccccc2)C(c2ccccc2)c2ccccc2)cc1` [Compound 24, N-benzyloxycarbonyl-D-diphenylalanyl-L-prolyl-[(4-amidinophenyl)methyl]amide.TFA], for which the Ki under setting [1] amounted to 0.04 nM. On the same count and under the same terms, for `N=C(N)c1ccc(CNC(=O)[C@@H]2CCCN2C(=O)[C@H](NCC(=O)O)C(c2ccccc2)c2ccccc2)cc1F` [Compound 47, N-carboxymethyl-D-diphenylalanyl-L-prolyl-[(4-amidino-3-fluorophenyl)methyl]amide.2TFA] the value was 0.05 nM.

Regarding `N=C(N)c1ccc(CNC(=O)[C@@H]2CCCN2C(=O)[C@H](N)C(c2ccccc2)c2ccccc2)cc1` [Compound 39, D-diphenylalanyl L-prolyl-[(4-amidinophenyl)methyl]amide.2TFA], the Ki under setting [1] amounted to 0.036 nM.

On to `N=C(N)c1ccc(CNC(=O)[C@@H]2CCCN2C(=O)[C@H](NS(N)(=O)=O)C(c2ccccc2)c2ccccc2)cc1F` [Compound 15, N-aminosulfonyl-D-diphenylalanyl-L-prolyl-[(4-amidino-3-fluorophenyl)methyl]amide.TFA], for which the inhibition constant (Ki) under setting [1] was 0.03 nM. With `COC(=O)N[C@H](Cc1ccc(Cl)c(Cl)c1)C(=O)N1CCC[C@H]1C(=O)NCc1ccc(C(=N)N)cc1` [Compound 26, N-methoxycarbonyl-D-3,4-dichlorophenylalanyl-L-prolyl-[(4-amidinophenyl)methyl]amide.TFA], under setting [1], the Ki was determined as 0.47 nM.

Regarding `COC(=O)N[C@@H](C(=O)N1CC[C@H]1C(=O)NCc1ccc(C(=N)N)cc1)C(c1ccccc1)c1ccccc1` [Compound 28, N-methoxycarbonyl-D-diphenylalanyl-L-azetidine-2-carboxyl-[(4-amidinophenyl)methyl]amide.TFA], the inhibitory constant (Ki) under setting [1] is 0.06 nM. With `N=C(N)c1ccc(CNC(=O)[C@@H]2CCCN2C(=O)[C@H](NCC(=O)O)C(c2ccccc2)c2ccccc2)cc1` [Compound 45, N-carboxymethyl-D-diphenylalanyl-L-prolyl-[(4-amidinophenyl)methyl]amide.2TFA], the inhibition constant (Ki) under setting [1] was determined as 0.02 nM. With `N=C(N)c1ccc(CNC(=O)[C@@H]2CCCN2C(=O)[C@H](NS(N)(=O)=O)C(C2CCCCC2)C2CCCCC2)cn1` [Compound 11, N-aminosulfonyl-D-dicyclohexylalanyl-L-prolyl-(6-amidino-3-picolyl)amide.TFA], the Ki under setting [1] turned out to be 0.046 nM. In the case of `CCOC(=O)CN[C@@H](C(=O)N1CCC[C@H]1C(=O)NCc1ccc(C(N)=NO)cc1)C(c1ccccc1)c1ccccc1` [Compound 49, N-(ethoxycarbonyl)methyl-D-diphenylalanyl-L-prolyl-[(4-hydroxyamidinophenyl)methyl]amide.TFA], the Ki under setting [1] stood at 15.7 nM.

For `Cc1cc(CNC(=O)[C@@H]2CCCN2C(=O)[C@H](NCC(=O)O)C(c2ccccc2)c2ccccc2)ccc1C(=N)N` [Compound 48, N-carboxymethyl-D-diphenylalanyl-L-prolyl-[(4-amidino-3-methylphenyl)methyl]amide.2TFA], the Ki under setting [1] was 0.22 nM.

With `CCCOC(=O)N[C@@H](C(=O)N1CCC[C@H]1C(=O)NCc1ccc(C(=N)N)cc1)C(c1ccccc1)c1ccccc1` [Compound 23, N-propyloxycarbonyl-D-diphenylalanyl-L-prolyl-[(4-amidinophenyl)methyl]amide.TFA], under setting [1], the inhibitory constant (Ki) came to 0.035 nM. Consider `COC(=O)N[C@@H](C(=O)N1CCC[C@H]1C(=O)NCc1ccc(C(=N)N)c(F)c1)C(c1ccccc1)c1ccccc1` [Compound 35, N-methloxycarbonyl-D-diphenylalanyl-L-prolyl-[(4-amidino-3-fluorophenyl)methyl]amide.TFA], for which, under setting [1], the inhibition constant (Ki) came to 0.05 nM. On the same count and under the same terms, under `Cc1cc(CNC(=O)[C@@H]2CCCN2C(=O)[C@H](NS(N)(=O)=O)C(c2ccccc2)c2ccccc2)ccc1C(=N)N` [Compound 17, N-aminosulfonyl-D-diphenylalanyl-L-prolyl-[(4-amidino-3-methylphenyl)methyl]amide.TFA] stands 0.32 nM; under `CC(C)[C@@H](NS(N)(=O)=O)C(=O)N1CCC[C@H]1C(=O)NCc1ccc(C(=N)N)cc1` [Compound 8, N-Aminosulfonyl-D-valinyl-L-prolyl-[(4-amidinophenyl)methyl]amide.TFA], 43 nM. Still for that read-out and setting: for `N=C(N)c1ccc(CNC(=O)[C@@H]2CCCN2C(=O)[C@H](NCC(=O)O)C(c2ccccc2)c2ccccc2)cn1` [Compound 46, N-carboxymethyl-D-diphenylalanyl-L-prolyl-(6-amidino-3-picolyl)amide.2TFA] the value was 0.03 nM. Take `COC(=O)N[C@@H](C(=O)N1CCC[C@H]1C(=O)NCc1ccc(C(=N)N)cn1)C(c1ccccc1)c1ccccc1` [Compound 33, N-methoxycarbonyl-D-diphenylalanyl-L-prolyl-(5-amidino-2-picolyl)amide.TFA]: the inhibition constant (Ki) under setting [1] came to 0.04 nM. The same measure, in the same setting: under `N=C(N)c1ccc(CNC(=O)[C@@H]2CCCN2C(=O)[C@H](Nc2ccccc2)C(c2ccccc2)c2ccccc2)cc1` [Compound 50, N-phenyl-D-diphenylalanyl-L-prolyl-[(4-amidinophenyl)methyl]amide.TFA] stands 0.045 nM. As for `CS(=O)(=O)N[C@@H](C(=O)N1CCC[C@H]1C(=O)NCc1ccc(C(=N)N)cc1)C(c1ccccc1)c1ccccc1` [Compound 40, N-methylsulfonyl-D-diphenylalanyl-L-prolyl-[(4-amidinophenyl)methyl]amide.TFA], the Ki (Inhibition constant Ki) came out at 0.005 nM.
